Experiments:
[1] = system: barnyardgrass; assay: Test A pre-/postemergence herbicide test; format: in vivo, Echinochloa crus-galli; conditions: for Plant response rating, Barnyardgrass: 0 to 100 scale
Procedure, shortened: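 Scoring was visual, relative to untreated controls, on a 0–100 scale after about 10 greenhouse days. Preemergence treatment used a directed soil spray over seeded loam/sand; postemergence treatment targeted one- to two-leaf plants of 2–10 cm.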

[2] = system: blackgrass; assay: Test C pre-/postemergence herbicide test; format: in vivo, Alopecurus myosuroides
Procedure, shortened: (§1)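 Response scores range from 0, meaning no effect, to 100, meaning complete control, assigned visually by comparison with controls roughly two weeks (13 to 15 days) after spraying. Applications were made preemergence to seeded loam–sand soil and postemergence to 1- to 4-leaf plants.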

[3] = system: wheat (winter wheat); assay: Test C pre-/postemergence herbicide test; format: in vivo, Triticum aestivum
Procedure, shortened: as §1

[4] = system: galium; assay: Test C pre-/postemergence herbicide test; format: in vivo, Galium aparine
Procedure, shortened: as §1

[5] = system: crabgrass, large; assay: Test C pre-/postemergence herbicide test; format: in vivo, Digitaria sanguinalis
Procedure, shortened: as §1

[6] = system: foxtail, giant; assay: Test C pre-/postemergence herbicide test; format: in vivo, Setaria faberii
Procedure, shortened: as §1

[7] = system: pigweed; assay: Test C pre-/postemergence herbicide test; format: in vivo, Amaranthus retroflexus
Procedure, shortened: as §1

[8] = system: soybean; assay: Test C pre-/postemergence herbicide test; format: in vivo, Glycine max
Procedure, shortened: as §1

[9] = system: barnyardgrass; assay: Test C pre-/postemergence herbicide test; format: in vivo, Echinochloa crus-galli
Procedure, shortened: as §1

[10] = system: oilseed rape; assay: Test C pre-/postemergence herbicide test; format: in vivo, Brassica napus
Procedure, shortened: as §1

[11] = system: oat, wild; assay: Test C pre-/postemergence herbicide test; format: in vivo, Avena fatua; conditions: Postemergence
Procedure, shortened: as §1

[12] = system: velvetleaf; assay: Test C pre-/postemergence herbicide test; format: in vivo, Abutilon theophrasti
Procedure, shortened: as §1

[13] = Postemergence, 31 g ai/ha, scale 0 to 100 (0 no effect, 100 complete control)
[14] = Postemergence, 62 g ai/ha, scale 0 (no effect) to 100 (complete control)
[15] = Postemergence, 125 g ai/ha, scale 0 to 100 (0 no effect, 100 complete control)
[16] = Postemergence, 250 g ai/ha, scale 0 to 100 (0 no effect, 100 complete control)
[17] = Preemergence, 31 g ai/ha, scale 0 to 100, 0 is no effect and 100 is complete control
[18] = Preemergence, 62 g ai/ha, scale 0 to 100
[19] = Preemergence, 125 g ai/ha, scale 0 to 100 (0 no effect, 100 complete control)
[20] = Preemergence, 62 g ai/ha, scale 0 to 100 (0 no effect, 100 complete control)

O=C1NCC(c2ccc(C(F)(F)F)cc2)C1C(=O)Nc1cccc(F)c1F (racemic) [Compound 202]
Plant response rating, Barnyardgrass ([1]; 125 g ai/ha, visual rating, 0 no effect, 100 complete control, approximately 10 days, preemergence): 90
Plant response rating, Barnyardgrass ([1]; Postemergence, 125 g ai/ha, 0 is no effect, 100 is complete control): 80
Barnyardgrass plant response rating (0 to 100 scale, 0 is no effect, 100 is complete control) ([1]; Postemergence, 500 g ai/ha): 90
Plant response rating, Barnyardgrass ([1]; preemergence, 500 g ai/ha, 0 is no effect and 100 is complete control): 90
Plant response rating, Blackgrass [2, 13]: 0
Plant response rating, Blackgrass [2, 14]: 0
Plant response rating, Blackgrass [2, 15]: 5
Plant response rating, Blackgrass [2, 16]: 10
Blackgrass plant response rating [2, 17]: 70
Plant response rating, Blackgrass [2, 18]: 80
Plant response rating, Blackgrass [2, 19]: 90
Plant response rating (scale of 0 to 100), Blackgrass ([2]; Preemergence, 250 g ai/ha): 90
Plant response rating, Wheat [3, 13]: 0
Plant response rating, Wheat [3, 14]: 0
Plant response rating, Wheat [3, 15]: 0
Plant response rating, Wheat [3, 16]: 5
Wheat plant response rating [3, 17]: 0
Wheat plant response rating [3, 20]: 30
Plant response rating, Wheat [3, 19]: 55
Plant response rating (scale of 0 to 100), Wheat ([3]; Preemergence, 250 g ai/ha): 60
Plant response rating, Galium [4, 13]: 80
Plant response rating, Galium [4, 14]: 80
Plant response rating, Galium [4, 15]: 80
Plant response rating, Galium [4, 16]: 80
Galium plant response rating [4, 17]: 85
Galium plant response rating [4, 20]: 90
Plant response rating, Galium [4, 19]: 90
Plant response rating (scale of 0 to 100), Galium ([4]; Preemergence, 250 g ai/ha): 90
Plant response rating, Crabgrass, Large [5, 13]: 30
Plant response rating, Crabgrass, Large [5, 14]: 50
Plant response rating, Crabgrass, Large [5, 15]: 60
Plant response rating, Crabgrass, Large [5, 16]: 75
Crabgrass, Large plant response rating [5, 17]: 90
Crabgrass, Large plant response rating [5, 20]: 95
Plant response rating, Crabgrass, Large [5, 19]: 98
Plant response rating (scale of 0 to 100), Crabgrass, Large ([5]; Preemergence, 250 g ai/ha): 98
Plant response rating, Foxtail, Giant [6, 13]: 5
Plant response rating, Foxtail, Giant [6, 14]: 25
Plant response rating, Foxtail, Giant [6, 15]: 70
Plant response rating, Foxtail, Giant [6, 16]: 85
Foxtail, Giant plant response rating [6, 17]: 90
Foxtail, Giant plant response rating [6, 20]: 90
Plant response rating, Foxtail, Giant [6, 19]: 95
Plant response rating (scale of 0 to 100), Foxtail, Giant ([6]; Preemergence, 250 g ai/ha): 98
Plant response rating, Pigweed [7, 13]: 80
Plant response rating, Pigweed [7, 14]: 80
Plant response rating, Pigweed [7, 15]: 85
Plant response rating, Pigweed [7, 16]: 85
Pigweed plant response rating [7, 17]: 85
Pigweed plant response rating [7, 20]: 85
Plant response rating, Pigweed [7, 19]: 90
Plant response rating (scale of 0 to 100), Pigweed ([7]; Preemergence, 250 g ai/ha): 100
Plant response rating, Soybean [8, 13]: 0
Plant response rating, Soybean [8, 14]: 0
Plant response rating, Soybean [8, 15]: 5
Plant response rating, Soybean [8, 16]: 10
Soybean plant response rating [8, 17]: 0
Soybean plant response rating [8, 20]: 25
Plant response rating, Soybean [8, 19]: 0
Plant response rating (scale of 0 to 100), Soybean ([8]; Preemergence, 250 g ai/ha): 10
Plant response rating, Barnyardgrass [9, 13]: 25
Plant response rating, Barnyardgrass [9, 14]: 65
Plant response rating, Barnyardgrass [9, 15]: 65
Plant response rating, Barnyardgrass [9, 16]: 85
Barnyardgrass plant response rating [9, 17]: 90
Plant response rating, Barnyardgrass [9, 18]: 90
Plant response rating, Barnyardgrass [9, 19]: 95
Plant response rating (scale of 0 to 100; 0 is no effect, 100 is complete control), Barnyardgrass ([9]; Preemergence, 250 g ai/ha): 95
Plant response rating, Oilseed Rape [10, 13]: 0
Plant response rating, Oilseed Rape [10, 14]: 0
Plant response rating, Oilseed Rape [10, 15]: 50
Plant response rating, Oilseed Rape [10, 16]: 50
Oilseed Rape plant response rating [10, 17]: 25
Oilseed Rape plant response rating [10, 20]: 80
Plant response rating, Oilseed Rape [10, 19]: 85
Plant response rating (scale of 0 to 100), Oilseed Rape ([10]; Preemergence, 250 g ai/ha): 90
Plant response rating, Oat, Wild ([11]; 31 g ai/ha, scale 0 to 100 (0 no effect, 100 complete control)): 0
Plant response rating, Oat, Wild ([11]; 62 g ai/ha, scale 0 (no effect) to 100 (complete control)): 0
Plant response rating, Oat, Wild ([11]; 125 g ai/ha, scale 0 to 100 (0 no effect, 100 complete control)): 30
Plant response rating, Oat, Wild ([11]; 250 g ai/ha, scale 0 to 100 (0 no effect, 100 complete control)): 10
Plant response rating, Velvetleaf [12, 13]: 10
Plant response rating, Velvetleaf [12, 14]: 20
Plant response rating, Velvetleaf [12, 15]: 30
Plant response rating, Velvetleaf [12, 16]: 55
Velvetleaf plant response rating [12, 17]: 10
Velvetleaf plant response rating [12, 20]: 30
Plant response rating, Velvetleaf [12, 19]: 50
Plant response rating (scale of 0 to 100), Velvetleaf ([12]; Preemergence, 250 g ai/ha): 65
